Values of other authors in patent US20260114463A1, “COATING LIQUID COMPOSITION, PRODUCTION METHOD THEREFOR, AND LIQUID CONTAINING LOW-TEMPERATURE DAMAGE INHIBITOR” (Mitsubishi Chemical Corporation, priority 2023, published 2026).

Conditions: raw material data

## Glycerin monocaprylate [Example M-100]
  HLB: 7.0
